Results reported in patent publication US20070043109A1, “Slimming cosmetic composition” (Sederma Sas, priority 2003, published 2007).

Columns and labels:
LDL receptor = assay: RT-PCR quantification of LDL receptor mRNA expression in 3T3-L1 neo-adipocytes; type: cell-based; details: 24 hours
Source text: (§1) To evidence regulation of transcription (control of the number of copies of the messenger RNA for the gene coding for the protein studied), it was necessary to isolate the messenger RNA (mRNA) synthesized from the cell culture. The mRNA specific for the protein of interest must be recognized in the total mRNA pool present in the cell.
(§2) The used method is RT-PCR, of amplification and quantization, conducted in real time on the latest-generation systems and which enables in-line quantitative measurement of the target mRNA.
(§3) Neo-adipocytes 3T3-L1 in the adipocytic differentiation phase (after addition of an appropriate triggering cocktail) were incubated with cafestol acetate for 24 hours.
(§4) At the end of the test, the adipocytes were lysed and the extracted mRNA transcribed to cDNA (by reverse transcriptase). The cDNA were then amplified (n copies using Taq polymerase) to obtain a detectable signal.
(§5) The amplicons (cDNA amplification products) were quantified directly, as they emerged in the RT-PCR system, then subjected to electrophoresis in order to visually illustrate the results.

VLDL receptor = assay: RT-PCR quantification of VLDL receptor mRNA expression in 3T3-L1 neo-adipocytes; type: cell-based
Source text: as §1, §2, §3, §4, §5

CC(=O)OC[C@@]1(O)C[C@@]23CC[C@@H]4c5ccoc5CC[C@@]4(C)[C@@H]2CC[C@@H]1C3 [Cafestol Acetate, cafestol acetate]
Change in LDL receptor mRNA expression relative to control (LDL receptor; equivalent to that of the positive control): −33%
mRNA expression LDL receptor, standardized on internal standard β-actin, percentage relative to the control (LDL receptor; cafestol acetate 15 ppm, 3T3-L1 neo-adipocytes in differentiation phase, mean of n = 3 tests, control = 100): 66%
mRNA expression VLDL receptor, standardized on internal standard β-actin, percentage relative to the control (VLDL receptor; cafestol acetate 15 ppm, 24 hours, 3T3-L1 neo-adipocytes in differentiation phase, mean of n = 3 tests, control = 100): 90%
Reduction of the VLDLr (mRNA expression) (VLDL receptor; in 24 hours): 10%
